Measurements from patent US6346258B1, “Physiological combination of active substances to enhance the skin's defenses against noxious agents” (priority 1997, dated 2002).

System: chorioallantoic membrane
Test: hen's egg test on the chorioallantoic membrane (HET-CAM): protective effect against the irritant 2% sodium dodecylsulfate
Set-up: species or system hen's eggs, American White Leghorn (Shaver Starcross 288)
Conditions: for protective effect (in words): applied 5 min before 2% sodium dodecylsulfate, compared to distilled water, NaCl 0.05/0.5/1.0%, CaCl2 0.05/0.5/5%, sorbitol 0.01/0.1/1% by weight; for Response (x) after 30 s / Response (x) after 2 min / Response (x) after 5 min: rating 0 (no response) to 7 (coagulation), 0.2 ml aqueous test substance, 5 min later 0.2 ml 2% sodium dodecylsulfate; for Response (x) after 30 s: read after 30 s; for Response (x) after 2 min: read after 2 min; for Response (x) after 5 min: read after 5 min
Protocol: Evidence of the activity in terms of enhancing the skin's defenses against noxious agents was furnished in a hen's egg test on the chorioallantoic membrane (HET-CAM), an established predictional test for detecting the irritation potency for the skin and mucosa. For testing, eggs of the race “American White Leghorn” ([…] 288) were employed. The eggs were incubated for 9 d (start of incubation=day 1) in a small-size motor incubator having an automatic turning over device and an automatic moisturizing control (type […] GmbH) at 37±1° C. and 65±5% of relative humidity. At day 9, the eggs were transilluminated for detecting fertilization, the non-fertilized eggs were sorted out, the remaining eggs were placed upright with the blunt pole (air bubble) up and incubated for another 24 h without turning over. At day 10, the egg pole was removed with fine scissors and tweezers, and the chorioallantoic membrane exposed. The following items were tested: irritant effect of the combination of active substances and its components protective effect Thus, 0.2 ml each of the aqueous solution of the test substance was applied, and after an interval of 5 min, 0.2 ml of a 2% solution of the irritant sodium dodecylsulfate was applied. The outcome of the response was compared to the effect obtained with water (placebo) according to the following rating: 0 no response 1 hyperemia-slight 2 hyperemia-medium 3 hyperemia-strong 4 hemorrhage-isolated 5 hemorrhage-frequent 6 hemorrhage-massive 7 coagulation […]

With `[Ca+2].[Cl-].[Cl-]` [CaCl2, calcium chloride] the “protective effect (in words)” value was “did not display any protective effects”.
In the case of `N#C[S-].[Na+]` [Comp. 2, NaSCN], the “protective effect (in words)” value was “display a skin protective activity”, the “Response (x) after 30 s” value was 2.8 and the “Response (x) after 2 min” value was 3.1. For the same compound, the “Response (x) after 5 min” value was 3.8.
`NC(N)=O` [Comp. 3, urea] was tested, and the “protective effect (in words)” value was “display a skin protective activity”, the “Response (x) after 30 s” value was 2.8 and the “Response (x) after 2 min” value was 3.6. The “Response (x) after 5 min” value was 4.0.
`[Cl-].[Na+]` [NaCl, sodium chloride] was tested, and the “protective effect (in words)” value was “did not display any protective effects”.
`OC[C@@H](O)[C@@H](O)[C@H](O)[C@@H](O)CO` [sorbitol] was tested, and the “protective effect (in words)” value was “did not display any protective effects”.
